Consider 2 compounds from BindingDB's records for doi:10.1016/S0960-894X(00)80304-2 (1993).

This assay has as its target Leukotriene B4 receptor 1 (Cavia porcellus). The assay can be described thus: Binding affinity against LTB4 receptor in guinea pig membrane.

pKi: −log10 of the molar value.

In turn, `CCCc1c(OCCCOc2cc(O)c(C(C)=O)cc2CC)cccc1OC(C)C(=O)O` (configuration not stated) [2-{3-[3-(4-Acetyl-2-ethyl-5-hydroxy-phenoxy)-propoxy]-2-propyl-phenoxy}-propionic acid] gave a pKi of 7.72. For the compound `CCCc1c(OCCCOc2cc(O)c(C(C)=O)cc2CC)cccc1OCC(=O)O` [{3-[3-(4-Acetyl-2-ethyl-5-hydroxy-phenoxy)-propoxy]-2-propyl-phenoxy}-acetic acid], the pKi is 8.30.
